The assay concerns R223X stop codon in the mutated luciferase gene, ADXC8 luciferase reporter cell line. As to the kind of experiment: cells. Type of assay: cell-based. Particulars: for Emax / EC (100% of 200 uM G418 response): 24 h; for Emax: read-out: Fold Over Control, maximum fold response relative to 200 μM G418; for Emax / EC (100% of 200 uM G418 response) / Fold Over Control / pC100%: ADXC8 cells, 24 hours; for EC (100% of 200 uM G418 response): read-out: pC100%, negative logarithm of the concentration giving the same response as 200 μM G418; for pC100% response: assayed at a concentration of 300 μM, C100% = concentration giving the same response as 200 μM G418; for Fold Over Control: maximum fold response relative to 200 μM G418; for pC100%: negative logarithm of the concentration giving the same response as 200 μM G418.

The structures appear in SMILES notation.

For the compound `CN1CCC(Nc2nc(N)c3ccc(Nc4ccccc4)nc3n2)CC1` [Example 35, N^2-(1-methylpiperidin-4-yl)-N^7-phenylpyrido[2,3-d]pyrimidine-2,4,7-triamine], the Emax lay within 0 to 100% and the EC (100% of 200 uM G418 response) is over 100 µM.

On to `CN1CCC(Nc2nc(N)c3ccc(-c4cccc(Cl)c4)nc3n2)CC1` [Example 91], for which the EC (100% of 200 uM G418 response) is 1 to 10 µM.

As for `Cc1nc2nc(NC3CCN(Cc4ccccc4)CC3)nc(N)c2c2c1CCC2` [Example 306], the Emax fell in the range of 100 to 3000% and the EC (100% of 200 uM G418 response) lay within 0.1 to 1 µM.

Take `Cc1c2c(nc3nc(N[C@@H]4CCCNC4)nc(N)c13)CCC2` [Example 581]: the Emax was 100 to 3000% and the EC (100% of 200 uM G418 response) fell in the range of 0.01 to 0.1 µM.

For `Cc1cc(C)c2c(NCCC(N)=O)nc(NC3CCN(C)CC3)nc2n1` [Example 329], the Emax is 0 to 100% and the EC (100% of 200 uM G418 response) is over 31.6 µM.

On to `CNC(=O)c1ccc(-c2ccc3c(N)nc(NC4CCN(C)CC4)nc3n2)cc1` [Example 77], for which the Emax lay in the range of 0 to 100% and the EC (100% of 200 uM G418 response) is over 100 µM.

`Cc1cc(C)c2c(N)nc(NCCC3CCCN(C)C3)nc2n1` (centres unmarked) [Example 159]: the EC (100% of 200 uM G418 response) was in the range of 1 to 10 µM.

In the case of `CNc1nc(NC23CCCN(CC2)C3)nc2nc(C)cc(C)c12` (centres unmarked) [Example 416], the Emax is 0 to 100% and the EC (100% of 200 uM G418 response) was over 31.6 µM.

`[2H]C([2H])(c1ccc(C#N)cc1)N1CCC(Nc2nc(N)c3c(C)cc(C)nc3n2)CC1` [Example 507, 4-((4-((4-amino-5,7-dimethylpyrido[2,3-d]pyrimidin-2-yl)amino)piperidin-1-yl)methyl-d2)benzonitrile]: the Emax was in the range of 100 to 3000% and the EC (100% of 200 uM G418 response) is 0.1 to 1 µM.

With `CC(=O)Nc1cccc(CN2CCC(Nc3nc(N)c4c(C)cc(C)nc4n3)CC2)c1` [Example 480], the Emax is 100 to 3000% and the EC (100% of 200 uM G418 response) was in the range of 10 to 100 µM.

As to `Cc1cc(C)c2c(N)nc(NC3CCN(Cc4ccncc4Br)CC3)nc2n1` [Example 559], the Emax is 100 to 3000% and the EC (100% of 200 uM G418 response) lay in the range of 1 to 10 µM.

For the compound `CNc1nc(N[C@H]2CNC[C@H]2F)nc2nc(C)cc(C)c12` [Example 335], the Emax was 100 to 3000% and the EC (100% of 200 uM G418 response) was 1 to 10 µM.

On to `Cc1cc(C)c2c(N)nc(NCCCN3CC(C(F)(F)F)C3)nc2n1` [Example 190], for which the Emax was 100 to 3000% and the EC (100% of 200 uM G418 response) fell in the range of 10 to 100 µM.

For `CNc1nc(N[C@H]2CN[C@H](COC)C2)nc2nc(C)cc(C)c12` [Example 414], the EC (100% of 200 uM G418 response) was 1 to 10 µM.

Consider `CNc1c(C)c(N[C@@H]2CCN(C)C2)nc2nc(C)cc(C)c12` [Example 620], for which the Emax is 0 to 100% and the EC (100% of 200 uM G418 response) was over 31.6 µM.

Turning to `Cc1nc2nc(NC3CCN(C)CC3)nc(N)c2c(C)c1-c1cnn(C)c1` [Example 678], the Emax is 0 to 100% and the EC (100% of 200 uM G418 response) is over 100 µM.

On to `Cc1c2c(nc3nc(NC4CCN(Cc5cccc(S(N)(=O)=O)c5)CC4)nc(N)c13)CCC2` [Example 665], for which the Emax lay in the range of 100 to 3000% and the EC (100% of 200 uM G418 response) was in the range of 1 to 10 µM.

With `CNc1nc(NC2CCN(Cc3ccccc3O)CC2)nc2nc(C)cc(C)c12` [Example 579], the Emax was in the range of 100 to 3000% and the EC (100% of 200 uM G418 response) was 0.1 to 1 µM.

Regarding `Cc1cc(C)c2c(N)nc(NC3CCC(N(C)C)CC3)nc2n1` (centres unmarked) [Example 204], the Emax is 100 to 3000% and the EC (100% of 200 uM G418 response) fell in the range of 1 to 10 µM.

`Cc1cc(C)c2c(N)nc(NC3CCN(CC(F)(F)F)CC3)nc2n1` [Example 178]: the Emax lay within 0 to 100% and the EC (100% of 200 uM G418 response) was over 100 µM.

As to `CN1CCC(Nc2nc(N)c3cccnc3n2)CC1` [Example 1, N^2-(1-methylpiperidin-4-yl)pyrido[2,3-d]pyrimidine-2,4-diamine], the Emax is 100 to 3000% and the EC (100% of 200 uM G418 response) is 10 to 100 µM.

Regarding `Nc1nc(N)c2nc(-c3ccccc3)c(N)nc2n1` [triamterene, reference compound], the Emax is 0 to 100%, the EC (100% of 200 uM G418 response) was over 100 µM and the pC100% response result was “not reached”.

In the case of `Cc1cc(C)c2c(NC(C)C)nc(N[C@@H]3CCNC3)nc2n1` [Example 323], the Emax was 100 to 3000% and the EC (100% of 200 uM G418 response) was 1 to 10 µM.

On to `CN1CCC(Nc2nc(N)c3ccc(-c4cnccn4)nc3n2)CC1` [Example 117], for which the Emax lay in the range of 0 to 100% and the EC (100% of 200 uM G418 response) was over 100 µM.

As to `CNc1nc(NC2CNCC2C#N)nc2nc(C)cc(C)c12` (single isomer, unassigned) [Example 453], the “Fold Over Control” value is reported as “## (Fold over Ctrl > 1 ≤ 30)” and the pC100% entry is given as “+ (pC100% > 4.0 ≤ 5.0)”.

`Cc1cc(C)c2c(N)nc(NC[C@H]3CN(C(=O)OC(C)(C)C)CCO3)nc2n1` [Example 138]: the Emax was in the range of 0 to 100% and the EC (100% of 200 uM G418 response) is over 100 µM.

For the compound `Cc1cc(C)c2c(N)nc(NC3CCN(Cc4c(C)cccc4O)CC3)nc2n1` [Example 538], the Emax was in the range of 100 to 3000% and the EC (100% of 200 uM G418 response) was 0.1 to 1 µM.

Take `Cc1cc(C)c2c(N)nc(NC3CCN(Cc4cc(C(F)(F)F)ccc4O)CC3)nc2n1` [Example 541]: the Emax is 0 to 100% and the EC (100% of 200 uM G418 response) is over 31.6 µM.

As to `CN1CCC(Nc2nc(N)c3cc(-c4ccn(C)n4)cnc3n2)CC1` [Example 648], the Emax lay within 0 to 100% and the EC (100% of 200 uM G418 response) was over 100 µM.

Turning to `Cc1cc(C)c2c(N)nc(NCCN(C)c3ccccc3)nc2n1` [Example 143], the Emax was 0 to 100% and the EC (100% of 200 uM G418 response) is over 31.6 µM.

As for `CNc1nc(N[C@H]2CN(C)C[C@@H]2F)nc2nc(C)cc(C)c12` [Example 339], the Emax was 100 to 3000% and the EC (100% of 200 uM G418 response) was 1 to 10 µM.

`CC(=O)NCCNc1nc(NC2CCN(C)CC2)nc2nc(C)cc(C)c12` [Example 355]: the Emax fell in the range of 0 to 100% and the EC (100% of 200 uM G418 response) is over 31.6 µM.

With `CN1CCC(Nc2nc(N)c3ccc(-c4ccc(C(=O)O)cc4)nc3n2)CC1` [Example 84], the Emax was 0 to 100% and the EC (100% of 200 uM G418 response) was over 100 µM.

Take `Cc1cc(C)c2c(N)nc(NC3CCN(Cc4ccccc4C#N)CC3)nc2n1` [Example 500]: the Emax lay within 100 to 3000% and the EC (100% of 200 uM G418 response) fell in the range of 1 to 10 µM.

On to `CNc1nc(N[C@H]2CN(C3CCC3)C[C@H]2F)nc2nc(C)cc(C)c12` [Example 627], for which the Emax fell in the range of 100 to 3000% and the EC (100% of 200 uM G418 response) was in the range of 10 to 100 µM.

`Cc1cc(C)c2c(N)nc(N[C@H]3CNC[C@H]3C)nc2n1` [Example 351]: the EC (100% of 200 uM G418 response) was in the range of 1 to 10 µM.

For the compound `Cc1cc(-c2ccccc2)nc2nc(NC3CCN(C)CC3)nc(N)c12` [Example 16, 5-methyl-N^2-(1-methylpiperidin-4-yl)-7-phenylpyrido[2,3-d]pyrimidine-2,4-diamine], the EC (100% of 200 uM G418 response) is 0.1 to 1 µM.

Regarding `CN1CCC(Nc2nc(N)c3cc(-c4cnn(C)c4)cnc3n2)CC1` [Example 679], the Emax lay in the range of 0 to 100% and the EC (100% of 200 uM G418 response) is over 100 µM.

In the case of `CCN1CCC(Nc2nc(N)c3c(C)cc(C)nc3n2)CC1` [Example 213], the Emax lay in the range of 100 to 3000% and the EC (100% of 200 uM G418 response) fell in the range of 1 to 10 µM.

As to `Cc1cc(C)c2c(N)nc(NC3CCN(Cc4cccc(C(F)(F)F)c4)CC3)nc2n1` [Example 492], the Emax was 100 to 3000% and the EC (100% of 200 uM G418 response) lay in the range of 10 to 100 µM.

As to `Cc1cc(C)c2c(N)nc(N[C@@H]3CCCCNC3)nc2n1` [Example 313], the Emax lay in the range of 100 to 3000% and the EC (100% of 200 uM G418 response) lay in the range of 1 to 10 µM.

`Cc1cc(C)c2c(NCc3ccccc3)nc(NC3CCN(C)CC3)nc2n1` [Example 268]: the Emax fell in the range of 100 to 3000% and the EC (100% of 200 uM G418 response) lay within 1 to 10 µM.

In the case of `CNc1nc(N[C@@H]2CN[C@H](C)C2)nc2nc(C)cc(C)c12` [Example 372], the Emax was in the range of 100 to 3000% and the EC (100% of 200 uM G418 response) is 10 to 100 µM.

On to `Cc1cc(C)c2c(N)nc(N[C@@H]3CCNC[C@@H]3O)nc2n1` [Example 573], for which the EC (100% of 200 uM G418 response) fell in the range of 1 to 10 µM.

For `Cc1cc(C)c2c(NCCN(C)C)nc(NC3CCN(C)CC3)nc2n1` [Example 270], the Emax lay within 100 to 3000% and the EC (100% of 200 uM G418 response) was 1 to 10 µM.

As for `Nc1nc(N)c2cccnc2n1` [pyrido[2,3-d]pyrimidine-2,4-diamine, reference compound], the Emax was in the range of 0 to 100%, the EC (100% of 200 uM G418 response) was over 100 µM and the pC100% response entry is on record as “not reached”.

As to `Cc1c2c(nc3nc(NC4CCN(Cc5ccn[nH]5)CC4)nc(N)c13)CCC2` [Example 662], the Emax is 100 to 3000% and the EC (100% of 200 uM G418 response) fell in the range of 1 to 10 µM.

As for `CNc1nc(N[C@H]2CN(C)C[C@H]2O)nc2nc(C)cc(C)c12` [Example 359], the Emax fell in the range of 100 to 3000% and the EC (100% of 200 uM G418 response) lay in the range of 10 to 100 µM.

For `Cc1cc(C)c2c(N)nc(NCCCN3CC4(CCCO4)C3)nc2n1` [Example 192], the Emax was 0 to 100% and the EC (100% of 200 uM G418 response) is over 31.6 µM.

Regarding `Cc1cc(C)c2c(N)nc(NC3CCN(Cc4cccc(C(N)=O)c4)CC3)nc2n1` [Example 484], the Emax fell in the range of 100 to 3000% and the EC (100% of 200 uM G418 response) lay within 10 to 100 µM.

Regarding `CSc1cccc(-c2ccc3c(N)nc(NC4CCN(C)CC4)nc3n2)c1` [Example 99], the EC (100% of 200 uM G418 response) lay in the range of 0.1 to 1 µM.

`CNS(=O)(=O)c1ccc(CN2CCC(Nc3nc(N)c4c(C)c5c(nc4n3)CCC5)CC2)cc1` [Example 666]: the Emax lay within 100 to 3000% and the EC (100% of 200 uM G418 response) lay in the range of 1 to 10 µM.

Regarding `CNc1nc(NC2CNCC2C#N)nc2nc(C)cc(C)c12` (single isomer, unassigned) [Example 450], the “Fold Over Control” value is given as “## (Fold over Ctrl > 1 ≤ 30)” and the pC100% result was “++ (pC100% > 5.0 ≤ 6.0)”.

(Values after patent US20260234144A1 (TAY THERAPEUTICS LIMITED, priority 2023, published 2026).)
